Consider 4 molecules from ChEMBL document CHEMBL6120973 (J Med Chem, 2024).

Data set [1] is described as follows: MRT (0 to infinity) in male Sprague-Dawley rat at 1 mg/kg, iv measured after 24 hrs by LC-MS analysis. Type of data set: ADME, organism-based. The note with it: in vivo.
A short description of data set [2]: MRT (0 to t) in male Sprague-Dawley rat at 1 mg/kg, iv measured after 24 hrs by LC-MS analysis. Type of data set: ADME, organism-based. Particulars: in vivo.
Data set [3] is described as follows: MRT (0 to infinity) in male Sprague-Dawley rat at 10 mg/kg, po measured after 24 hrs by LC-MS analysis. The note with it: in vivo. Type of data set: ADME, organism-based.
The nature of data set [4]: Half-life in male Sprague-Dawley rat at 1 mg/kg, iv measured after 24 hrs by LC-MS analysis. Particulars: in vivo. In kind it is ADME, organism-based.
Data set [5] can be described thus: Half-life in male Sprague-Dawley rat at 10 mg/kg, po measured after 24 hrs by LC-MS analysis. Type of data set: ADME, organism-based. Particulars: in vivo.
Data set [6] can be described thus: Clearance in male Sprague-Dawley rat at 1 mg/kg, iv measured after 24 hrs by LC-MS analysis. Type of data set: ADME, organism-based. Particulars: in vivo.
Data set [7] is described as follows: Solubility of compound in Watson's distilled pure water measured after 24 hrs by HPLC analysis. In kind it is physicochemical.
A short description of data set [8]: AUC (0 to infinity) in male Sprague-Dawley rat at 1 mg/kg, iv measured after 24 hrs by LC-MS analysis. In kind it is ADME, organism-based. Particulars: in vivo.
Data set [9] is described as follows: Solubility of compound in phosphate buffer at pH 7.0 measured after 24 hrs by HPLC analysis. In kind it is physicochemical.
The nature of data set [10]: MRT (0 to t) in male Sprague-Dawley rat at 10 mg/kg, po measured after 24 hrs by LC-MS analysis. In kind it is ADME, organism-based. The note with it: in vivo.
The nature of data set [11]: AUC (0 to t) in male Sprague-Dawley rat at 1 mg/kg, iv measured after 24 hrs by LC-MS analysis. Type of data set: ADME, organism-based. Particulars: in vivo.
Data set [12] can be described thus: Cmax in male Sprague-Dawley rat at 1 mg/kg, iv measured after 24 hrs by LC-MS analysis. In kind it is ADME, organism-based. Particulars: in vivo.
A short description of data set [13]: Cmax in male Sprague-Dawley rat at 10 mg/kg, po measured after 24 hrs by LC-MS analysis. The note with it: in vivo. Type of data set: ADME, organism-based.
A short description of data set [14]: Solubility of compound in phosphate buffer at pH 7.4 measured after 24 hrs by HPLC analysis. In kind it is physicochemical.
The nature of data set [15]: Oral bioavailability in male Sprague-Dawley rat at 10 mg/kg measured after 24 hrs by LC-MS analysis. Particulars: in vivo. Type of data set: ADME, organism-based.
The nature of data set [16]: AUC (0 to t) in male Sprague-Dawley rat at 10 mg/kg, po measured after 24 hrs by LC-MS analysis. Type of data set: ADME, organism-based. The note with it: in vivo.
The nature of data set [17]: Solubility of compound in phosphate buffer at pH 2.0 measured after 24 hrs by HPLC analysis. In kind it is physicochemical.
Data set [18] is described as follows: Tmax in male Sprague-Dawley rat at 1 mg/kg, iv measured after 24 hrs by LC-MS analysis. In kind it is ADME, organism-based. Particulars: in vivo.
Data set [19] can be described thus: Tmax in male Sprague-Dawley rat at 10 mg/kg, po measured after 24 hrs by LC-MS analysis. Type of data set: ADME, organism-based. Particulars: in vivo.
A short description of data set [20]: AUC (0 to infinity) in male Sprague-Dawley rat at 10 mg/kg, po measured after 24 hrs by LC-MS analysis. The note with it: in vivo. Type of data set: ADME, organism-based.
A short description of data set [21]: Metabolic stability in dog liver microsomes assessed as half-life at 0.1 uM preincubated for 10 mins followed by NADPH addition and measured upto 60 mins by LC-MS/MS analysis. Particulars: time < 70 min. Type of data set: ADME, Canis lupus familiaris, Microsome.
The nature of data set [22]: Cytotoxicity against human MT4 cells assessed as reduction in cell viability measured after 5 days by MTT assay.
Data set [23] is described as follows: Metabolic stability in human liver microsomes assessed as half-life at 0.1 uM preincubated for 10 mins followed by NADPH addition and measured upto 60 mins by LC-MS/MS analysis. In kind it is ADME, Microsome. The note with it: time < 70 min.
Data set [24] has as its system Human immunodeficiency virus 1. Briefly: Antiviral activity against wildtype HIV-1 IIIB infected in human MT4 cells assessed as protection against virus-induced cytopathic effect incubated for 5 days by MTT assay. Type of data set: functional, organism-based. Particulars: Human immunodeficiency virus 1, IIIB, MT4, 120 h.
The nature of data set [25]: Metabolic stability in rat liver microsomes assessed as half-life at 0.1 uM preincubated for 10 mins followed by NADPH addition and measured upto 60 mins by LC-MS/MS analysis. Type of data set: ADME, Microsome. The note with it: time < 70 min.
Data set [26] concerns Human immunodeficiency virus 1. Nature of the data set: Antiviral activity against HIV-1 harboring RT F227L/V106A double mutant infected in human MT4 cells assessed as protection against virus-induced cytopathic effect incubated for 5 days by MTT assay. Type of data set: functional, organism-based. The note with it: Human immunodeficiency virus 1, MT4, 120 h.
Data set [27] deals with Human immunodeficiency virus 1. Briefly: Antiviral activity against HIV-1 harboring RT L100I mutant infected in human MT4 cells assessed as protection against virus-induced cytopathic effect incubated for 5 days by MTT assay. The note with it: Human immunodeficiency virus 1, MT4, 120 h. Type of data set: functional, organism-based.
Data set [28] concerns the target Human immunodeficiency virus type 1 reverse transcriptase (Human immunodeficiency virus 1, UniProt Q72547). Nature of the data set: Inhibition of recombinant wild type HIV-1 Reverse transcriptase incubated for 40 mins by Pico-green reagent based fluorescence analysis.
The subject of data set [29] is Human immunodeficiency virus 1. Nature of the data set: Antiviral activity against HIV-1 harboring RT E138K mutant infected in human MT4 cells assessed as protection against virus-induced cytopathic effect incubated for 5 days by MTT assay. In kind it is functional, organism-based. The note with it: Human immunodeficiency virus 1, MT4, 120 h.
Data set [30] concerns Human immunodeficiency virus 1. Nature of the data set: Antiviral activity against HIV-1 harboring RT K103N mutant infected in human MT4 cells assessed as protection against virus-induced cytopathic effect incubated for 5 days by MTT assay. In kind it is functional, organism-based. Particulars: Human immunodeficiency virus 1, MT4, 120 h.
The test system of data set [31] is Human immunodeficiency virus 1. Nature of the data set: Antiviral activity against HIV-1 harboring RT Y188L mutant infected in human MT4 cells assessed as protection against virus-induced cytopathic effect incubated for 5 days by MTT assay. In kind it is functional, organism-based. Particulars: Human immunodeficiency virus 1, MT4, 120 h.
Data set [32] relates to Human immunodeficiency virus 1. Briefly: Antiviral activity against HIV-1 harboring RT Y181C mutant infected in human MT4 cells assessed as protection against virus-induced cytopathic effect incubated for 5 days by MTT assay. Type of data set: functional, organism-based. Particulars: Human immunodeficiency virus 1, MT4, 120 h.
Data set [33] relates to Human immunodeficiency virus 1. Nature of the data set: Antiviral activity against HIV-1 harboring RT K103N/Y181C double mutant infected in human MT4 cells assessed as protection against virus-induced cytopathic effect incubated for 5 days by MTT assay. In kind it is functional, organism-based. The note with it: Human immunodeficiency virus 1, MT4, 120 h.

The structures appear in SMILES notation. pEC50, pIC50: −log10 of the molar value.

For `Cc1cc(-c2ccncc2)cc(C)c1Nc1nc(Nc2ccc(C#N)cc2)ncc1-c1cn[nH]c1.Cl`, the MRT inf stood at 1.14 h in data set [1] and 3.14 h in data set [3]. The MRT last at 24 h is 1.1 h in data set [2] and 3.04 h in data set [10]. The half-life in data set [4] is 0.84 h; in [5] it was 2.92 h. This molecule showed a clearance in data set [6] of 30.3 mL/min/kg. Also, the solubility at 24 h is 366 µg/mL in [7], below 1 µg/mL in data set [9], below 1 µg/mL in [14] and 782 µg/mL in [17]. For the same molecule, the AUC(0-inf) in data set [8] worked out at 605 ng·h/mL; in data set [20], 3470 ng·h/mL. Also, the AUC(0-t) at 24 h in data set [11] stood at 600 ng·h/mL; in data set [16] it was 3460 ng·h/mL. The Cmax in [12] worked out at 572 ng/mL; in [13], 862 ng/mL. Also, in data set [15], the bioavailability was 57.4%. Further, the Tmax was 4.8 min in data set [18] and 1 h in data set [19].

As for `Cc1cc(/C=C/C#N)cc(C)c1Nc1ccnc(Nc2ccc(C#N)cc2)n1` [RILPIVIRINE], the half-life at 0.1 µM in data set [21] was 1.32 h; in data set [23] it was 0.267 h; in data set [25], 0.121 h. The CC50 at 120 h in data set [22] (MT4 cells) was above 6350 nM. In addition, the pEC50 in data set [24] was 8.40.

Consider `N#Cc1ccc(Nc2nccc(Nc3c(F)cc(-c4ccncc4)cc3F)n2)cc1`, for which the negative-log EC50 (pEC50) in data set [26] is 6.52; in data set [27] it was 8.40; in [24], 8.70; in data set [29] it was 8.00; in [30], 8.70; in data set [31] it was 7.24. Besides, the pEC50 in data set [32] was 8.22; in data set [33], 7.19. Further, in [22] (mt4), the CC50 at 120 h amounted to 6000 nM. For the same molecule, in [28], the pIC50 was 7.51. The half-life at 0.1 µM in data set [23] was determined as 0.16 h; in data set [25] it was 0.217 h.

With `Cc1cc(C#N)cc(C)c1Oc1nc(Nc2ccc(C#N)cc2)nc(N)c1Br` [ETRAVIRINE], the pEC50 in data set [26] is 7.92; in data set [27] it was 8.40; in data set [31] it was 7.77; in [32] it was 7.89; in [33], 7.37. For the same molecule, the half-life at 0.1 µM in [21] was determined as 2.53 h; in [23], 1.07 h; in data set [25] it was 0.225 h. Besides, in data set [22] (MT4 cells), the CC50 at 120 h is above 4610 nM. For the same molecule, the solubility at 24 h in [7], in data set [9] and in [14] was below 1 µg/mL each time.
